According to patent US12090149B2, “SMAD3 inhibitors” (Moexa Pharmaceuticals Limited, priority 2018, dated 2024):
Values joined by “and” are separate entries in the source; they are usually repeats but may differ in a detail not shown here. Equal entries are not always repeated. Where two headings read alike, the source gives them in different places.

Key:
[1] = Aqueous solubility assay (shake-flask, LC/MS/MS); format: physicochemical; settings: for solubility at 24 h: thermodynamic from solid, 25° C., SIS3 hydrochloride salt, MO-00005 free base, read-out: Conc. Of Sample (ug/mL), aqueous solubility
Description: Poorly soluble compounds can dramatically reduce productivity in drug discovery and development. Solubility assays involve assessment of kinetic solubility (from DMSO stock solution) using a shake-flask technique in a plate format and LC/MS/MS analysis.
• Analytical Column: YMC ODS-AM S-3 120A, 3×50 mm column with Guard. • Flow Rate: 500 ul/min • Mobil Phase: Isocratic 50% acetonitrile: 50% 20 mM Ammonium Acetate pH 4. Back Pressure: 1400 psi • Column Temperature: Ambient, • Autosampler Setting: Injection Volume: 5 ul, Loop Volume: 100 ul, Tray Temperature: 4° C. • Needle wash: Vial position 100. Needle wash solution: 50% Methanol water
• Component Mass Molarity • Sodium bicarbonate (mw: 84 g/mol) 0.11628 g 0.0461 M • Sodium carbonate (anhydrous) (mw: 106 g/mol) 0.17127 g 0.0539 M • Tris Buffer pH 7.7 (100 mL) • Add 0.363 g of tris to 30 mL water. Check pH at room temperature the pH should be 7.7 with acetic acid. • Acetate Buffer pH 3.6 (30 mL) • Component Mass Molarity • Sodium Acetate (anhydrous) (mw: 82 g/mol) 0.01188 g 0.0048 M • Acetic Acid (mw: 60.05 g/mol) 0.17145 g 0.0952 M (0.17145 g=[…])
Then run all samples at this dilution. • (xi) Run samples in duplicate and estimate aqueous solubility.
As such, it may be expected that the hydrochloride salt will have better solubility in unbuffered aqueous solutions. There the thermodynamic equilibrium dissolution concentrations of both compounds were determined also in buffered solutions at pH 4, 7.7, and 10.4 in addition to unbuffered water.

CYP2D6 = target: T1, CYP2D6 (Homo sapiens, UniProt P10635); assay: Cytochrome P450 inhibition assay, human liver microsomes, CYP2D6; format: in vitro ADME; settings: probe dextromethorphan, dextromethorphan substrate, read-out: CYP2D6 inhibition (HLM, dextromethorphan substrate) Inhibition (%)
T1 construct: CONSTRUCT DETAILS: Microsomes; from tissue; host or cells: human liver microsomes
T1 sequence (P10635 whole entry): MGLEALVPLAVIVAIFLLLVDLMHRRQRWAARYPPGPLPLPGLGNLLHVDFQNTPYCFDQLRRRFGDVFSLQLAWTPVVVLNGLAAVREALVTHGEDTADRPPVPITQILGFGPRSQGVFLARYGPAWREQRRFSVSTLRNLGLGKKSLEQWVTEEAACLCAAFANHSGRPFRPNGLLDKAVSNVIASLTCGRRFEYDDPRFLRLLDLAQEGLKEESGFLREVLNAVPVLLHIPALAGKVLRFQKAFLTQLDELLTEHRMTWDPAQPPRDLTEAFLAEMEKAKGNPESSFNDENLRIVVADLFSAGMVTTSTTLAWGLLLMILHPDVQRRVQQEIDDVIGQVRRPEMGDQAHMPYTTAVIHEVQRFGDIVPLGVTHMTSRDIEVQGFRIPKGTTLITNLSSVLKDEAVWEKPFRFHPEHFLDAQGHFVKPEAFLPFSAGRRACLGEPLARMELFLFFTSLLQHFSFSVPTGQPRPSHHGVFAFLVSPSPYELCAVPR

B16-F10 syngeneic model = assay: Subcutaneous B16-F10 syngeneic model, tumor growth; format: in vivo, C57BL/6 mice
Description: In order to evaluate the in vivo efficacy of SIS3 and novel compounds of the present invention, a study has been conducted in treatment of the subcutaneous B16-F10 syngeneic models.
• Animal species and strain: C57BL/6 mice • History of treatment: Naive • Sex, age and weight: Female, 6-8 weeks • Breeder/supplier: Shanghai SLAC Laboratory Animal Co. Ltd • Adaptation: At least 7 days • Room: SPF Room • Room temperature: 20-26° C. • Room relative humidity: 40-70% • Light cycle: Fluorescent light for 12-hour light (08:00-20:00) and 12-hour dark • Animal hosting: 2-5 mice/cage each group • Food: Free access to food • Water: Free access to water (municipal tap water filtered by reverse osmosis or high-pressure sterilizer)
B16-F10 cell was maintained at 37° C. under 5% CO2 in DMEM medium supplemented with 10% FBS and were subsequently cultured within 10 passages before inoculated into the mice.
B16-F10 cells (3×10^5 in 100 μL of serum-free medium) were inoculated to each of C57BL/6 mice via s.c. under anesthesia by 3-4% isoflurane. Each group contains 15 mice.
When average tumor volume reached 35-60 mm^3, 15 mice were randomized into group 6. The day of inoculation was denoted as day 0.
Tumor dimensions were measured on Day 4, 5, 6, 8, 11, 13, 15 and 18, after inoculation in 2 dimensions with calipers.
When required, tumor volume was measured daily. The tumor volume (V) was calculated as follows: V=(length×width^2)/2.
The individual relative tumor volume (RTV) was calculated as follows: RTV=Vt/V0, where Vt was the volume on each day, and V0 was the volume at the beginning of the treatment.
Tumor growth inhibition (TGI), TGI=(1−(Ti−T0)/(Ci−C0))×100%; Ti and Ci as the mean tumor volumes of the treatment and control groups on the measurement day; T0 and C0 as the mean tumor volumes of the treatment and control groups on day 0
Results were expressed as mean±S.E.M. Comparisons between two groups were made by Dunnett's multi-comparison test, p<0.05 were considered as significant.

In the case of `COc1cc2c(cc1OC)CN(C(=O)/C=C/c1c(-c3ccccc3)nc3ccccn13)CC2` [Compound 8, (E)-1-(6,7-dimethoxy-3,4-dihydroisoquinolin-2(1H)-yl)-3-(2-phenylimidazo[1,2-a]pyridin-3-yl)prop-2-en-1-one], the solubility at 24 h ([1]; aqueous buffer pH 4.03, aqueous buffer, pH 4.03 buffer) is reported as 598 µg/mL, the solubility at 24 h ([1]; aqueous buffer pH 7.70, pH 7.7, aqueous buffer, pH 7.70 buffer) is reported as 269 µg/mL and the “aqueous solubility relative to the solubility of SIS3” value ([1]; pH of 4.0) is reported as 35 times. For the same compound, the solubility at 24 h ([1]; unbuffered water) was 321 µg/mL, the inhibition at 10 µM (CYP2D6) was -2.74% and the “Tumor Sizes (mm3) Mean” value (B16-F10 syngeneic model; 10 mg/kg q.d. * 3W i.p., Day 4 (estimated value)) was 0.62 mm3. For the same compound, the “Relative tumor volume Mean” value (B16-F10 syngeneic model; 10 mg/kg q.d. * 3W i.p., Day 4, RTV=Vt/V0) was 0.04, the “Tumor Sizes (mm3) Mean” value (B16-F10 syngeneic model; 10 mg/kg q.d. * 3W i.p., Day 5 (estimated value)) was 0.75 mm3 and the “Relative tumor volume Mean” value (B16-F10 syngeneic model; 10 mg/kg q.d. * 3W i.p., Day 5, RTV=Vt/V0) was 0.04. For the same compound, the “Tumor Sizes (mm3) Mean” value (B16-F10 syngeneic model; 10 mg/kg q.d. * 3W i.p., Day 6 (estimated value)) was 4.31 mm3, the “Relative tumor volume Mean” value (B16-F10 syngeneic model; 10 mg/kg q.d. * 3W i.p., Day 6, RTV=Vt/V0) was 0.19 and the “Tumor Sizes (mm3) Mean” value (B16-F10 syngeneic model; 10 mg/kg q.d. * 3W i.p., Day 8) was 38.42 mm3. For the same compound, the “Relative tumor volume Mean” value (B16-F10 syngeneic model; 10 mg/kg q.d. * 3W i.p., Day 8, RTV=Vt/V0) was 1.00, the “Tumor Sizes (mm3) Mean” value (B16-F10 syngeneic model; 10 mg/kg q.d. * 3W i.p., Day 11) was 151.84 mm3 and the “Relative tumor volume Mean” value (B16-F10 syngeneic model; 10 mg/kg q.d. * 3W i.p., Day 11, RTV=Vt/V0) was 4.80. The “Tumor growth inhibition (%) TGI” value (B16-F10 syngeneic model; 10 mg/kg q.d. * 3W i.p., Day 11, calculated based on tumor volume of Day 8) was 29%, the “Tumor Sizes (mm3) Mean” value (B16-F10 syngeneic model; 10 mg/kg q.d. * 3W i.p., Day 13) was 416.04 mm3 and the “Relative tumor volume Mean” value (B16-F10 syngeneic model; 10 mg/kg q.d. * 3W i.p., Day 13, RTV=Vt/V0) was 12.93. The “Tumor growth inhibition (%) TGI” value (B16-F10 syngeneic model; 10 mg/kg q.d. * 3W i.p., Day 13, calculated based on tumor volume of Day 8) was 30%, the “Tumor Sizes (mm3) Mean” value (B16-F10 syngeneic model; 10 mg/kg q.d. * 3W i.p., Day 15) was 816.24 mm3 and the “Relative tumor volume Mean” value (B16-F10 syngeneic model; 10 mg/kg q.d. * 3W i.p., Day 15, RTV=Vt/V0) was 26.76. For the same compound, the “Tumor growth inhibition (%) TGI” value (B16-F10 syngeneic model; 10 mg/kg q.d. * 3W i.p., Day 15, calculated based on tumor volume of Day 8) was 23%, the “Tumor Sizes (mm3) Mean” value (B16-F10 syngeneic model; 10 mg/kg q.d. * 3W i.p., Day 18) was 2500.45 mm3 and the “Relative tumor volume Mean” value (B16-F10 syngeneic model; 10 mg/kg q.d. * 3W i.p., Day 18, RTV=Vt/V0) was 93.48. For the same compound, the “Tumor growth inhibition (%) TGI” value (B16-F10 syngeneic model; 10 mg/kg q.d. * 3W i.p., Day 18, calculated based on tumor volume of Day 8) was 11%, the “Tumor Sizes (mm3) Mean” value (B16-F10 syngeneic model; 30 mg/kg q.d. * 3W i.p., Day 4 (estimated value)) was 0.36 mm3 and the “Relative tumor volume Mean” value (B16-F10 syngeneic model; 30 mg/kg q.d. * 3W i.p., Day 4, RTV=Vt/V0) was 0.01. For the same compound, the “Tumor Sizes (mm3) Mean” value (B16-F10 syngeneic model; 30 mg/kg q.d. * 3W i.p., Day 5 (estimated value)) was 0.56 mm3, the “Relative tumor volume Mean” value (B16-F10 syngeneic model; 30 mg/kg q.d. * 3W i.p., Day 5, RTV=Vt/V0) was 0.01 and the “Tumor Sizes (mm3) Mean” value (B16-F10 syngeneic model; 30 mg/kg q.d. * 3W i.p., Day 6 (estimated value)) was 5.33 mm3. The “Relative tumor volume Mean” value (B16-F10 syngeneic model; 30 mg/kg q.d. * 3W i.p., Day 6, RTV=Vt/V0) was 0.16, the “Tumor Sizes (mm3) Mean” value (B16-F10 syngeneic model; 30 mg/kg q.d. * 3W i.p., Day 8) was 47.99 mm3 and the “Relative tumor volume Mean” value (B16-F10 syngeneic model; 30 mg/kg q.d. * 3W i.p., Day 8, RTV=Vt/V0) was 1.00. The “Relative tumor volume Mean” value (B16-F10 syngeneic model; 30 mg/kg q.d. * 3W i.p., Day 11, RTV=Vt/V0) was 3.76, the “Tumor growth inhibition (%) TGI” value (B16-F10 syngeneic model; 30 mg/kg q.d. * 3W i.p., Day 11, calculated based on tumor volume of Day 8) was 26% and the “Tumor Sizes (mm3) Mean” value (B16-F10 syngeneic model; 30 mg/kg q.d. * 3W i.p., Day 11, listed as MO-00005) was 165.30 mm3 and 165.3 mm3. For the same compound, the “Tumor Sizes (mm3) Mean” value (B16-F10 syngeneic model; 30 mg/kg q.d. * 3W i.p., Day 13) was 376.62 mm3, the “Relative tumor volume Mean” value (B16-F10 syngeneic model; 30 mg/kg q.d. * 3W i.p., Day 13, RTV=Vt/V0) was 10.44 and the “Tumor Sizes (mm3) Mean” value (B16-F10 syngeneic model; 30 mg/kg q.d. * 3W i.p., Day 15) was 794.11 mm3. The “Relative tumor volume Mean” value (B16-F10 syngeneic model; 30 mg/kg q.d. * 3W i.p., Day 15, RTV=Vt/V0) was 21.61 and the “Tumor Sizes (mm3) Mean” value (B16-F10 syngeneic model; 30 mg/kg q.d. * 3W i.p., Day 18) was 2303.09 mm3.
